Measured values published in patent US5045566A, “Novel imidate insecticides” (ICI Americas Inc., priority 1989, dated 1991).

Legend:
Format in all cases: in vivo
[1] = system: Housefly [Musca domestica]; assay: Housefly contact mortality in dishes (HF), 48 hours; conditions: μg of test compound per 25 female flies
Summary of the method: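 LC50, as μg compound per 25 female flies, comes from dosage-mortality curves with doses from 100 μg downward. Residues were made by evaporating acetone plus 0.01% peanut oil in dishes, onto which 1-2-day-old females were caged; deaths were counted after 48 hours.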

[2] = system: Black Bean Aphid [Aphis fabae (Scop.)]; assay: Black bean aphid spray test on nasturtium (BBA), 48 hours; conditions: percent of test compound in sprayed solution
Summary of the method: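 LC50, given as percent test compound in the sprayed liquid, was calculated from dosage-mortality curves using concentrations from 0.05% downward. Sprays in 50:50 acetone-water went to runoff on ~5 cm nasturtiums carrying 25-50 aphids of mixed ages, one day after infestation. Deaths were counted 48 h later under greenhouse conditions.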

[3] = system: Tobacco Budworm [Heliothis virescens (Fabricius)] eggs; assay: Tobacco budworm eggs (TBW-E); conditions: percent in solution; 2-day old eggs
Summary of the method: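 LC50 values (percent test compound in the dip solution) were calculated from dosage-mortality curves. Egg patches, 2 days old, were dipped in acetone solutions at concentrations from 0.1% downward and held at 78° F on rearing medium until control larvae hatched and fed.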

[4] = system: Cabbage Looper [Trichoplusia ni (Hubner)]; assay: Cabbage looper leaf dip (CL), 3-5 days; conditions: percent in solution, second-instar larvae
Summary of the method: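 Leaf dip, squash cotyledons, 50-50 acetone-water, top dose 0.1% and lower. 5 second-instar larvae/dish, moist filter paper, high-humidity chamber. Mortality at 3-5 d; LC50 (% in solution) from dosage-mortality curves.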

[5] = system: Aster Leafhopper [Macrosteles fascifrens (Stal)]; assay: Aster leafhopper on dipped oat seedlings (LH), 48 hours; conditions: percent in solution, adults/nymphs
Description: The compounds in Tables 1 and 2 above were tested for insecticidal activity using the following testing procedures. LC50 values, based on the results of these tests and calculated according to dosage-mortality curves, are expressed in Table 3.
Aster Leafhopper [Macrosteles fascifrens (Stal)]
Oat seedlings (Avena sp) were grown in a commercial potting soil in cups. When the plants were approximately 10 cm tall they were thinned to three plants per cup and dipped for 2-3 seconds in 50-50 acetone-water solutions of the test compounds. When the plants had dried, a clear plastic tube was placed over them and the bottom end pressed into the cup. Ten aster leafhopper adults/nymphs were then placed in each tube and the tops of the tubes covered with white organdy cloth. Mortality counts were made after 48 hours. Test concentrations ranged from 0.05% down to that at which 50% mortality occurred. The LC50 values are expressed below in Table 3 under the heading "LH" in terms of the percent of the test compound in the solution.

[6] = system: Maize weevil [Sitophilus zeamais (Motschulsky)]; assay: Maize weevil on dipped corn seeds (MW), 48 hours; conditions: percent in solution, adult weevils
Summary of the method: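 LC50, given as percent of compound in dipping solution, comes from dosage-mortality curves over concentrations descending from 0.01%. Four corn seeds soaked 2-3 s in 50:50 acetone:water solution were dried and held with 10 adult weevils, about 25° C, mortality read after 48 h.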

| Compound | LC50 HF [1] [µg] | LC50 BBA [2] [%] | LC50 TBW E (eggs) [3] [%] | LC50 CL [4] [%] | LC50 LH [5] [%] | LC50 MW [6] [%] |
| --- | --- | --- | --- | --- | --- | --- |
| Cc1cccc(N=C(OCc2cccc(Oc3ccccc3)c2)C(C)C)c1 [Compound 155] | 9 | 0.001 | 0.06 | 0.004 | > 0.05 | > 0.01 |
| Cc1ccc(N=C(OCc2cccc(Oc3ccccc3)c2)C(C)C)cc1 [Compound 156] | 10 | 0.001 | 0.05 | 0.004 | > 0.05 | > 0.01 |
| COc1ccc(N=C(OCc2cccc(Oc3ccccc3)c2)C(C)C)cc1 [Compound 160] | 7 | 0.003 | 0.09 | 0.005 | 0.05 | > 0.01 |
| CC(C)C(=Nc1ccc(C#N)cc1)OCc1cccc(Oc2ccccc2)c1 [Compound 172] | 5 | > 0.05 | 0.04 | 0.002 | > 0.05 | > 0.01 |
| c1ccc(Oc2cccc(COC(=Nc3ccc4c(c3)OCO4)C3CC3)c2)cc1 [Compound 177] | 13 | 0.01 | > 0.1 | 0.002 | > 0.05 | 0.01 |
| CCC(=Nc1ccc2c(c1)OCO2)OCc1cccc(Oc2ccccc2)c1 [Compound 178, N-(3,4-Methylenedioxyphenyl)-O-(3-phenoxybenzyl)propionimidate] | 6 | 0.05 | > 0.1 | 0.004 | > 0.05 | > 0.01 |
| CC(C)C(=Nc1ccc2c(c1)OCCO2)OCc1cccc(Oc2ccccc2)c1 [Compound 179] | 13 | 0.003 | > 0.1 | 0.004 | 0.005 | > 0.01 |
| CC(C)C(=Nc1ccc(-c2ccccc2)cc1)OCc1cccc(Oc2ccccc2)c1 [Compound 186] | > 100 | > 0.05 | > 0.1 | 0.008 | > 0.05 | > 0.01 |
| CC(C)C(=Nc1ccc(F)c(Cl)c1)OCc1cccc(Oc2ccc(F)c(F)c2)c1 [Compound 217] | 8 | 0.001 | 0.015 | 0.00006 | > 0.05 | 0.0084 |
| CC(C)C(=Nc1ccc2c(c1)OCO2)OCc1cccc(Oc2ccc(Cl)cc2)c1 [Compound 240] | 14 | 0.001 | 0.04 | 0.0003 | > 0.05 | > 0.01 |
| CC(C)C(=Nc1cccc(I)c1)OCc1cccc(Oc2ccc(F)cc2)c1 [Compound 255] | 16 | 0.003 | 0.075 | 0.00017 | 0.0005 | > 0.01 |
| CSc1ccc(Oc2cccc(COC(=Nc3ccc(F)c(Cl)c3)C(C)C)c2)cc1 [Compound 256] | > 100 | 0.03 | 0.1 | 0.007 | > 0.05 | > 0.01 |
| CC(C)C(=Nc1ccc(F)cc1)OCc1cccc(Oc2ccc(Br)cc2)c1 [Compound 259] | 15 | 0.006 | 0.05 | 0.0003 | > 0.05 | > 0.01 |
| CC(C)C(=Nc1cccc([N+](=O)[O-])c1)OCc1cccc(Oc2ccc(Cl)cc2)c1 [Compound 271] | 27 | > 0.05 | 0.1 | 0.0004 | > 0.05 | > 0.01 |
